Assay results reported in article PMC8954792 (Viruses, 2022).
Like-named read-outs stand apart in the source and are kept apart here.

Key:
[1] = tested on: authentic IAV H3N2 (A/Victoria/361/2011); format: cell-based, influenza virus
EBOV (Sudan) = assay: microbe, parasite or virus in culture; format: cell-based, Ebola virus
[2] = tested on: authentic ZIKV PRVABC59 (2015/Puerto Rico); assay: microbe, parasite or virus in culture; format: cell-based; conditions: read-out: IC50
HIV-1 Bal.01 PsV [3] = assay: Sucrose density gradient assay to evaluate viral inactivation; conditions: HIV-1 Bal.01 PsV treated with 50 μM at 37 °C for 2 h
EBOV (Zaire) = assay: microbe, parasite or virus in culture; format: cell-based, Ebola virus
H5N1 PsV = assay: microbe, parasite or virus in culture; format: cell-based, influenza virus; conditions: read-out: IC50 H5N1
NiV = assay: microbe, parasite or virus in culture; format: cell-based, Nipah virus
Vero E6 cells = format: cell-based
VSV PsV = assay: microbe, parasite or virus in culture; format: cell-based, vesicular stomatitis virus; conditions: read-out: IC50
SARS-CoV-2 PsV [4] = format: cell-based
HIV-1 6-HB = HIV-1 6-HB (Human immunodeficiency virus type 1, UniProt P04578); assay: Inhibition of HIV-1 6-HB formation (ELISA); format: biochemical; conditions: HIV-1 6-HB formation measured by ELISA
Chain of HIV-1 6-HB (P04578 536-581, added parts left off): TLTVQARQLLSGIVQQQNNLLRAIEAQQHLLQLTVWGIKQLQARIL
Chain of HIV-1 6-HB (P04578 536-581, added parts left off): as above

cell-free SARS-CoV-2 PsV = assay: Inactivation of cell-free SARS-CoV-2 PsV; format: cell-based
cell-free MERS-CoV PsV [5] = tested on: cell-free MERS-CoV PsV
authentic HCoV-OC43 = assay: CPE reduction assay, authentic HCoV-OC43; format: cell-based; conditions: HCoV-OC43 infection, RD cells, CCK-8
[6] = tested on: authentic IAV H1N1 (A/California/04/2009); format: cell-based, influenza virus
SARS-CoV PsV [7] = tested on: SARS-CoV PsV
authentic EV71 = assay: CPE reduction assay, authentic EV71; format: cell-based, human enterovirus 71 virus; conditions: RD cells
H7N9 PsV = assay: microbe, parasite or virus in culture; format: cell-based, influenza virus; conditions: read-out: IC50 H7N9
LASV = assay: organism not typed; format: cell-based, Lassa fever virus
Huh-7 cells = assay: Cytotoxicity (CCK-8) on Huh-7 cells
HIV-1 Bal.01 PsV [8] = assay: HIV-1 PsV inhibition in presence of recombinant unilamellar liposomes; format: cell-based; conditions: compared with the PBS group
cell-free SARS-CoV PsV [9] = tested on: cell-free SARS-CoV PsV
MERS-CoV PsV [10] = tested on: MERS-CoV PsV
HPV PsV = format: cell-based, human papilloma virus
hACE2-293T cells = assay: Cytotoxicity (CCK-8) on hACE2-293T cells
[11] = tested on: pseudotyped SARS-CoV-2 Omicron (B.1.1.529); assay: microbe, parasite or virus in culture; format: cell-based; conditions: Severe acute respiratory syndrome coronavirus 2, Caco-2
[12] = tested on: pseudotyped SARS-CoV-2 Gamma (P.1); assay: microbe, parasite or virus in culture; format: cell-based; conditions: Severe acute respiratory syndrome coronavirus 2, Caco-2
cell-free SARS-CoV PsV [13] = assay: microbe, parasite or virus in culture; conditions: Severe acute respiratory syndrome coronavirus
in vitro = conditions: dog
cell-free MERS-CoV PsV [14] = assay: microbe, parasite or virus in culture; conditions: Middle East respiratory syndrome-related coronavirus, Huh-7
SARS-CoV-2 PsV [15] = assay: microbe, parasite or virus in culture; format: cell-based; conditions: Severe acute respiratory syndrome coronavirus 2
[16] = tested on: pseudotyped SARS-CoV-2 Alpha (B.1.1.7); assay: microbe, parasite or virus in culture; format: cell-based; conditions: Severe acute respiratory syndrome coronavirus 2, Caco-2
SARS-CoV PsV [17] = assay: microbe, parasite or virus in culture; conditions: Severe acute respiratory syndrome coronavirus
[18] = tested on: authentic SARS-CoV-2 WT (nCoV-SH01); assay: microbe, parasite or virus in culture; format: cell-based; conditions: Severe acute respiratory syndrome coronavirus 2, Vero C1008
MERS-CoV PsV [19] = assay: microbe, parasite or virus in culture; conditions: Middle East respiratory syndrome-related coronavirus, Huh-7
[20] = Cytotoxicity (CCK-8) on Huh-7 cells; conditions: human
[21] = tested on: pseudotyped SARS-CoV-2 Beta (B.1.351); assay: microbe, parasite or virus in culture; format: cell-based; conditions: Severe acute respiratory syndrome coronavirus 2, Caco-2
[22] = Cytotoxicity (CCK-8) on hACE2-293T cells; conditions: human
[23] = Severe acute respiratory syndrome coronavirus 2

O=C(O)c1cc(-c2ccc(C=C3SC(=S)N(CCc4ccccc4)C3=O)o2)ccc1Cl [FD001, furanyl methylidene rhodanine]
inhibition of authentic IAV H3N2 infection [1]: inhibited | IC50 (EBOV (Sudan)): 390 ± 40 nM | IC50 [2]: 4360 nM | integrity of the viral membrane (band distribution of p24) (HIV-1 Bal.01 PsV [3]): did not disrupt the integrity of the viral membrane | IC50 (EBOV (Zaire)): 1040 ± 110 nM | IC50 (H5N1 PsV): 260 ± 30 nM | IC50 (NiV): 410 ± 70 nM | fluorescence intensity of treated cells (binding to cells) (Vero E6 cells): positively correlated with compound concentration | IC50 (VSV PsV): 20 nM | inhibition of SARS-CoV-2 PsV infection after unbound compound washed from cells (SARS-CoV-2 PsV [4]): not effective in inhibiting viral infection after washing | IC50 (HIV-1 6-HB): 17400 nM | EC50 (cell-free SARS-CoV-2 PsV): 670 nM | EC50 (cell-free MERS-CoV PsV [5]): 1120 ± 160 nM | SI CC50/EC50 (cell-free MERS-CoV PsV [5]): 38.08 | IC50 (authentic HCoV-OC43): 480 nM | inhibition of authentic IAV H1N1 infection [6]: inhibited | IC50 (SARS-CoV PsV [7]): 180 ± 20 nM | SI CC50/IC50 (SARS-CoV PsV [7]): 160.22 | inhibition of infection of authentic EV71 (authentic EV71): could not inhibit | IC50 (H7N9 PsV): 850 ± 210 nM | CC50 (MDCK cells): > 50000 nM | IC50 (LASV): 440 ± 100 nM | CC50 (Huh-7 cells): 42600 ± 1310 nM | antiviral activity, liposomes added to HIV-1 PsV pretreated with compound (HIV-1 Bal.01 PsV [8]): good antiviral activity | inhibitory activity against HIV-1 PsV, compound pretreated with liposomes (HIV-1 Bal.01 PsV [8]): no different from that of the PBS group | EC50 (cell-free SARS-CoV PsV [9]): 1580 ± 210 nM | SI CC50/EC50 (cell-free SARS-CoV PsV [9]): 18.25 | IC50 (MERS-CoV PsV [10]): 290 ± 30 nM | SI CC50/IC50 (MERS-CoV PsV [10]): 147.07 | inhibition of infection of nonenveloped HPV PsV (HPV PsV): could not inhibit | CC50 (hACE2-293T cells): 28800 ± 1240 nM

C#CCOc1ccc(CCN2C(=O)/C(=C/c3ccc(-c4ccc(Cl)c(C(=O)O)c4)o3)SC2=S)cc1 [FD007]
IC50 [11]: 3090 nM | IC50 [12]: 530 nM | EC50 (cell-free SARS-CoV PsV [13]): 1540 ± 140 nM | CC50 (in vitro): > 50000 nM | EC50 (cell-free MERS-CoV PsV [14]): 890 ± 90 nM | IC50 (SARS-CoV-2 PsV [15]): 320 nM | IC50 (H5N1 PsV; Influenza A virus, H5N1, MDCK): 470 ± 110 nM | IC50 [16]: 290 nM | EC50 (cell-free SARS-CoV-2 PsV; [23]): 960 nM | IC50 (SARS-CoV PsV [17]): 110 ± 10 nM | IC50 [18]: 170 nM | SI CC50/EC50 (cell-free MERS-CoV PsV [5]): >56.18 | SI CC50/IC50 (SARS-CoV PsV [7]): 301.00 | IC50 (H7N9 PsV; Influenza A virus, H7N9, MDCK): 2130 ± 200 nM | IC50 (MERS-CoV PsV [19]): 200 ± 30 nM | CC50 at 48 h [20]: > 50000 nM | SI CC50/EC50 (cell-free SARS-CoV PsV [9]): 21.50 | SI CC50/IC50 (MERS-CoV PsV [10]): >250 | IC50 [21]: 810 nM | CC50 at 48 h [22]: 33100 ± 1020 nM

C#CCOCCOc1ccc(CCN2C(=O)/C(=C/c3ccc(-c4ccc(Cl)c(C(=O)O)c4)o3)SC2=S)cc1 [FD008]
IC50 [11]: 740 nM | IC50 [12]: 690 nM | EC50 (cell-free SARS-CoV PsV [13]): 190 ± 20 nM | CC50 (in vitro): > 50000 nM | EC50 (cell-free MERS-CoV PsV [14]): 690 ± 130 nM | IC50 (SARS-CoV-2 PsV [15]): 460 nM | IC50 (H5N1 PsV; Influenza A virus, H5N1, MDCK): 510 ± 140 nM | IC50 [16]: 340 nM | EC50 (cell-free SARS-CoV-2 PsV; [23]): 410 nM | IC50 (SARS-CoV PsV [17]): 50 ± 10 nM | IC50 [18]: 50 nM | SI CC50/EC50 (cell-free MERS-CoV PsV [5]): 56.38 | SI CC50/IC50 (SARS-CoV PsV [7]): 468.80 | IC50 (H7N9 PsV; Influenza A virus, H7N9, MDCK): 2510 ± 330 nM | IC50 (MERS-CoV PsV [19]): 310 ± 20 nM | CC50 at 48 h [20]: 38900 ± 1220 nM | SI CC50/EC50 (cell-free SARS-CoV PsV [9]): 123.37 | SI CC50/IC50 (MERS-CoV PsV [10]): 125.48 | IC50 [21]: 420 nM | CC50 at 48 h [22]: 23400 ± 780 nM

CCOc1ccc(CCN2C(=O)/C(=C/c3ccc(-c4ccc(Cl)c(C(=O)O)c4)o3)SC2=S)cc1 [FD009]
IC50 [11]: 580 nM | IC50 [12]: 470 nM | EC50 (cell-free SARS-CoV PsV [13]): 120 ± 10 nM | CC50 (in vitro): > 50000 nM | EC50 (cell-free MERS-CoV PsV [14]): 290 ± 20 nM | IC50 (SARS-CoV-2 PsV [15]): 50 nM | IC50 (H5N1 PsV; Influenza A virus, H5N1, MDCK): 150 ± 40 nM | inhibition of SARS-CoV-2 PsV infection after unbound compound washed from cells (SARS-CoV-2 PsV [4]): not effective in inhibiting viral infection after washing | IC50 [16]: 550 nM | EC50 (cell-free SARS-CoV-2 PsV; [23]): 160 nM | IC50 (SARS-CoV PsV [17]): 30 ± 10 nM | IC50 [18]: 30 nM | SI CC50/EC50 (cell-free MERS-CoV PsV [5]): 94.97 | IC50 (H7N9 PsV; Influenza A virus, H7N9, MDCK): 1410 ± 270 nM | IC50 (MERS-CoV PsV [19]): 280 ± 20 nM | CC50 at 48 h [20]: 27500 ± 1430 nM | SI CC50/EC50 (cell-free SARS-CoV PsV [9]): 144.75 | SI CC50/IC50 (MERS-CoV PsV [10]): 98.36 | IC50 [21]: 240 nM | CC50 at 48 h [22]: 17400 ± 640 nM
